Results on 18 molecules are retold here after patent publication US10745377B2, “Piperidine or piperazine linked imidazole and triazole derivatives and methods of use” (MERCK SHARP & DOHME CORP., priority 2013, dated 2020).

Assay type in all cases: biochemical
For one assay, the target named is T1, CYP3A4 (Homo sapiens, UniProt P08684).
T1 construct: 0.1 mg/mL protein human liver microsomes (BD Gentest); tissue BD Gentest; host or cells: human liver microsomes
The assay is described as follows: Cocktail assay for CYPs in human liver microsomes: CYP3A4 (midazolam 1′-hydroxylation). As to conditions: human liver microsomes 0.1 mg/mL, 2 μM midazolam, 10 min at 37° C., 6 concentrations up to 10 μM; read-out: IC50 (nM) CYP3A4.

A further assay addresses T2, CYP1A2 (Homo sapiens, UniProt P05177).
T2 construct: 0.1 mg/mL protein human liver microsomes (BD Gentest); tissue BD Gentest; host or cells: human liver microsomes
T2 sequence (P05177 1-516): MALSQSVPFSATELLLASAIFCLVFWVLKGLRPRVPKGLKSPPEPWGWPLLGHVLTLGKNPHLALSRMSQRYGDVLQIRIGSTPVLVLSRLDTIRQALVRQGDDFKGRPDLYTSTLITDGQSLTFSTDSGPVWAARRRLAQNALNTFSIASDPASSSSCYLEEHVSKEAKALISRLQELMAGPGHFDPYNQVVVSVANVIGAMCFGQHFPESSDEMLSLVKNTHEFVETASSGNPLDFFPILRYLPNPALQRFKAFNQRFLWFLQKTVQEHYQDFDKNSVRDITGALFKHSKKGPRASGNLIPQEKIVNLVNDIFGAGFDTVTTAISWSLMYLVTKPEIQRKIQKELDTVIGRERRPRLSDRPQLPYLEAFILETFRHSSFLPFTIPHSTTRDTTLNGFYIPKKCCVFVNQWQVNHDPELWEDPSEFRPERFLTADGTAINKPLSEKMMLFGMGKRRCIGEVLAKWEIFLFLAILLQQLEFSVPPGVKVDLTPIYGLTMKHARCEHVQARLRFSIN
The assay can be described thus: Cocktail assay for CYPs in human liver microsomes: CYP1A2 (phenacetin O-deethylation). As to conditions: human liver microsomes 0.1 mg/mL, 10 μM phenacetin, 10 min at 37° C., 6 concentrations up to 10 μM; read-out: IC50 (nM) CYP1A2. On the technique in general: Microsomes from liver hold many membrane-bound enzymes, among them those of drug oxidation.

For the next assay, the target named is T3, CYP2C9 (Homo sapiens, UniProt P11712).
T3 construct: 0.1 mg/mL protein human liver microsomes (BD Gentest); tissue BD Gentest; host or cells: human liver microsomes
T3 sequence (P11712 whole entry): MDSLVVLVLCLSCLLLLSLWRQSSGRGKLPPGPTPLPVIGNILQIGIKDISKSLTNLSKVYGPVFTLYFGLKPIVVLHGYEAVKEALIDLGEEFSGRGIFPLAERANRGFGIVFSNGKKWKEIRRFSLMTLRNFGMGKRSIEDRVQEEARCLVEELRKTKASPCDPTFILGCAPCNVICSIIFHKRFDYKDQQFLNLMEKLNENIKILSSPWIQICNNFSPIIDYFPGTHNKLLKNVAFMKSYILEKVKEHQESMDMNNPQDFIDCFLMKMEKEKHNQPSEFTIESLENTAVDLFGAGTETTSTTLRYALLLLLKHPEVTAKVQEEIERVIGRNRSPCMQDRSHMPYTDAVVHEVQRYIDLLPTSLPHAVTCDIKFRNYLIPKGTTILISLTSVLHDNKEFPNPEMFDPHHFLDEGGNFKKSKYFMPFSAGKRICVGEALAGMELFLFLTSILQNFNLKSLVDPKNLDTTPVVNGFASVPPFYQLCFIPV
The assay is described as follows: Cocktail assay for CYPs in human liver microsomes: CYP2C9 (diclofenac 4′-hydroxylation). As to conditions: human liver microsomes 0.1 mg/mL, 5 μM diclofenac, 10 min at 37° C., 6 concentrations up to 10 μM; read-out: IC50 (nM) CYP2C9.

A further assay has as its target T4, CYP2C19 (Homo sapiens, UniProt P33261).
T4 construct: 0.1 mg/mL protein human liver microsomes (BD Gentest); tissue BD Gentest; host or cells: human liver microsomes
The assay is described as follows: Cocktail assay for CYPs in human liver microsomes: CYP2C19 (mephenytoin 4′-hydroxylation). As to conditions: human liver microsomes 0.1 mg/mL, 30 μM mephenytoin, 10 min at 37° C., 6 concentrations up to 10 μM; read-out: IC50 (nM) CYP2C19.

The target of another assay is T5, CYP2D6 (Homo sapiens, UniProt P10635).
T5 construct: 0.1 mg/mL protein human liver microsomes (BD Gentest); tissue BD Gentest; host or cells: human liver microsomes
T5 sequence (P10635 whole entry): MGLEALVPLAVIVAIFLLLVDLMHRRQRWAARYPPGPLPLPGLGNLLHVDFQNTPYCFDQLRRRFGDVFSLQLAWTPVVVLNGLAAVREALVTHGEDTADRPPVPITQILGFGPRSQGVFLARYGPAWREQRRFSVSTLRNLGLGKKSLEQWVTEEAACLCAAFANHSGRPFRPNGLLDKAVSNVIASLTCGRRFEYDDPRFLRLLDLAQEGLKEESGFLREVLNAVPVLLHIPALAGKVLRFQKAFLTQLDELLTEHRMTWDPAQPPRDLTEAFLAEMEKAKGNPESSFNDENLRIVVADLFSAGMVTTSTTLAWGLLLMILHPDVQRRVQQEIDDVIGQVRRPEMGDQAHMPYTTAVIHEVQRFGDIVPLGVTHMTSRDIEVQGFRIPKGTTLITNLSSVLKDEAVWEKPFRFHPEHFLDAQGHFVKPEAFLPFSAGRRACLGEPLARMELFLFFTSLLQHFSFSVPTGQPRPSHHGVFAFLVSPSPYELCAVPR
The assay can be described thus: Cocktail assay for CYPs in human liver microsomes: CYP2D6 (dextromethorphan O-demethylation). Particulars: human liver microsomes 0.1 mg/mL, 5 μM dextromethorphan, 10 min at 37° C., 6 concentrations up to 10 μM; read-out: IC50 (nM) CYP2D6.

SMILES strings stand for the structures.

T1 sequence (P08684 whole entry): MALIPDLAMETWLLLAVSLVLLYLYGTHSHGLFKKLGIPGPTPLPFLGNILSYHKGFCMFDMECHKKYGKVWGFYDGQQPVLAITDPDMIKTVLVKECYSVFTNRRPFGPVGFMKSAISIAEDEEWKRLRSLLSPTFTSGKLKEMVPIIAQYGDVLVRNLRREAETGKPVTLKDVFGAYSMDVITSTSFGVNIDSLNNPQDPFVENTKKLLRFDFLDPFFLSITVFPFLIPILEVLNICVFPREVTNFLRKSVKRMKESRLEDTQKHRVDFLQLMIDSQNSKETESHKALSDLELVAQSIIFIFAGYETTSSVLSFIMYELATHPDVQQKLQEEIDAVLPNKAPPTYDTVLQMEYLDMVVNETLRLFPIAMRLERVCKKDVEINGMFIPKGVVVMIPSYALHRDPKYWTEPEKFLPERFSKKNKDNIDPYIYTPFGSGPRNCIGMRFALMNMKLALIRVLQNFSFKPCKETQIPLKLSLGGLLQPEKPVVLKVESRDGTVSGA
T4 sequence (P33261 whole entry): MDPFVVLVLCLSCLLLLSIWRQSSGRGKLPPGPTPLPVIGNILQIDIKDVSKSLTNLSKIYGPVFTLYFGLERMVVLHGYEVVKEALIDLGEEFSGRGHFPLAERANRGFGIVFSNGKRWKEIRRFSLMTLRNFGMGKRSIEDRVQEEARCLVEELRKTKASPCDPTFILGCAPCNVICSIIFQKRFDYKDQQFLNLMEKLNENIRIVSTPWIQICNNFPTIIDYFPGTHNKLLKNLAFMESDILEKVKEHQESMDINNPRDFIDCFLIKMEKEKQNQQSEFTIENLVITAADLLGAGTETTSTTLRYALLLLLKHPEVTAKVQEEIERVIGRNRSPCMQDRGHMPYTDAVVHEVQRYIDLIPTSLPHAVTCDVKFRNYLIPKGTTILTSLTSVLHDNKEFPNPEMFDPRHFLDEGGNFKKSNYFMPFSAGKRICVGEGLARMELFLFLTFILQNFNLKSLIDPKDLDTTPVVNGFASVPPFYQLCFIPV
Procedure for CYP3A4: Determination of IC50 in a Cocktail Assay for CYPs 1A2, 2C9, 2C19, 2D6 and 3A4
This assay was performed in a standard 96-well plate design. […] The incubation substrate mix contains 10 μM phenacetin (1A2), 5 μM diclofenac (2C9), 30 μM mephenytoin (2C19), 5 μM dextromethorphan (2D6) and 2 μM midazolam (3A4), 0.1 mg/mL protein human liver microsomes (BD Gentest), 1 mM NAPDH, 3.3 mM MgCl2 and 100 mM potassium phosphate buffer (pH 7.4). The production of the metabolite of each probe substrate was determined after incubation for 10 min at 37° C. Quantitation of the metabolite peak area ratio against an internal standard (tolbutamide) was determined by LC/MS/MS analysis following acetonitrile treatment of the incubations.
Samples were analyzed in the MRM mode with a SCIEX API-4000 mass spectrometer (Applied Biosystems, Foster City, Calif.), with a Shimadzu LC-20 AD pump (Shimadzu corporation, Kyoto, JP) and a CTC PAL autosampler (Agilent Technologies, Switzerland). A Phenomenex, Luna, 5 μm, 100 A, 2.00×30 mm HPLC column was used for the separation. The mobile phases were: (A) 0.1% formic acid in water and (B) 0.1% formic acid in acetonitrile. The binary gradient was as follows.
The mass spectrum parameters were as follows:
The LC/MS/MS parameters for the analytes were as follows.
The peak area ratio of the analyte to the internal standard was used to quantify the metabolite. The values of peak area ratios in the presence of test compound were compared to those of maximum or minimum controls and were expressed as % inhibition by interpolating between the maximum and minimum peak area ratios. Incubations with no inhibitor were defined as the maxima.
The following equation was used to calculate the % inhibition: [1−[(X−Low control)/(High control−Low control)]]*100
For the IC50 calculation, SigmaPlot was used to plot the mean % inhibition versus the test compound concentrations and for non-linear regression analysis of the data. Depending on the range of data points defining the inhibition curve, the data may have been fit to the 4-parameter logistic equation.

For orientation: IC50 means the concentration that gives 50% inhibition. For `Cc1cc(C(=O)N2CCN(Cc3cncn3[C@H](C)c3ccc(F)cc3)CC2c2ccccc2)no1` (stereo partly drawn) [Compound 49, (4-((1-((R)-1-(4-fluorophenyl)ethyl)-1H-imidazol-5-yl)methyl)-2-phenylpiperazin-1-yl)(5-methylisoxazol-3-yl)methanone], the IC50 on CYP3A4 is 14 nM; at CYP1A2, > 10000 nM; at CYP2C9 it was 1810 nM; on CYP2C19, 2110 nM; at CYP2D6, > 10000 nM.

On to `CC(=O)N1CCN(Cc2cncn2[C@H](C)c2ccc(F)cc2)CC1c1ccccc1` (stereo partly drawn) [Compound 51, 1-(4-((1-((R)-1-(4-fluorophenyl)ethyl)-1H-imidazol-5-yl)methyl)-2-phenylpiperazin-1-yl)ethanone], for which the half-maximal inhibitory concentration (IC50) on CYP3A4 was 22 nM; at CYP1A2 it was > 10000 nM; at CYP2C9 it was > 10000 nM; on CYP2C19, > 10000 nM; at CYP2D6 it was > 10000 nM.

`C[C@H](c1ccc(F)cc1)n1cncc1CN1CCN(C(=O)c2ccccn2)C(c2ccccc2)C1` (stereo partly drawn) [Compound 53]: the half-maximal inhibitory concentration (IC50) on CYP3A4 was 13 nM; on CYP1A2, > 10000 nM; on CYP2C9 it was 6120 nM; at CYP2C19, > 10000 nM; on CYP2D6, 9840 nM.

For the molecule `CC1CN(Cc2cncn2[C@H](C)c2ccc(F)cc2)CC(C)N1C(=O)C1(C)CC1` (stereo partly drawn) [Compound 54, (4-((1-((R)-1-(4-fluorophenyl)ethyl)-1H-imidazol-5-yl)methyl)-2,6-dimethylpiperazin-1-yl)(1-methylcyclopropyl) methanone], the concentration for half-maximal inhibition (IC50) is 14 nM on CYP3A4; > 10000 nM on CYP1A2; 2860 nM at CYP2C9; 3350 nM at CYP2C19; > 10000 nM at CYP2D6.

For the molecule `C[C@H](c1ccc(F)cc1)n1cncc1CN1CCN(C(=O)c2ccccc2)C(C(C)(C)C)C1` (stereo partly drawn) [Compound 55, (2-(tert-butyl)-4-((1-((R)-1-(4-fluorophenyl)ethyl)-1H-imidazol-5-yl)methyl)piperazin-1-yl)(phenyl) methanone], the concentration for half-maximal inhibition (IC50) at CYP3A4 is 10 nM; on CYP1A2, > 10000 nM; at CYP2C9 it was 2970 nM; on CYP2C19, 2390 nM; on CYP2D6, 8030 nM.

In the case of `CC1CN(Cc2cncn2C(C)C2CCOCC2)CC(C)N1C(=O)C1(C)CC1` (stereo not drawn) [Compound 56, (2,6-dimethyl-4-((1-(1-(tetrahydro-2H-pyran-4-yl)ethyl)-1H-imidazol-5-yl)methyl)piperazin-1-yl)(1-methylcyclopropyl) methanone], the IC50 on CYP3A4 was 35 nM; on CYP1A2, > 10000 nM; at CYP2C9 it was > 10000 nM; on CYP2C19 it was > 10000 nM; on CYP2D6 it was 7160 nM.

Take `C[C@H](c1ccc(F)cc1)n1cncc1CN1CCN(C(=O)C2(C)CC2)C(c2ccc(N(C)C)cc2)C1` (stereo partly drawn) [Compound 57, (2-(4-(dimethylamino)phenyl)-4-((1-((R)-1-(4-fluorophenyl)ethyl)-1H-imidazol-5-yl)methyl)piperazin-1-yl)(1-methylcyclopropyl) methanone]: the concentration for half-maximal inhibition (IC50) on CYP3A4 is 5 nM; on CYP1A2 it was > 10000 nM; on CYP2C9 it was 2810 nM; on CYP2C19, 2640 nM; on CYP2D6, 2450 nM.

Consider `CC1CN(Cc2cncn2[C@H](C)c2ccc(C#N)cc2)CC(C)N1C(=O)C1CC(F)(F)C1` (stereo partly drawn) [Compound 58, 4-((1R)-1-(5-((4-(3,3-difluorocyclo-butanecarbonyl)-3,5-dimethylpiperazin-1-yl)methyl)-1H-imidazol-1-yl)ethyl)benzonitrile], for which the IC50 is 7 nM at CYP3A4; > 10000 nM on CYP1A2; 2570 nM on CYP2C9; > 10000 nM at CYP2C19; > 10000 nM on CYP2D6.

For `CC(c1ccccc1-c1ccc(F)cc1)n1cncc1CN1CCN(C(=O)c2ccccc2)CC1` (stereo not drawn) [Compound 59, (4-((1-(1-(4′-fluoro-[1,1′-biphenyl]-2-yl)ethyl)-1H-imidazol-5-yl)methyl)piperazin-1-yl)(phenyl) methanone], the half-maximal inhibitory concentration (IC50) was 9 nM at CYP3A4; > 10000 nM at CYP1A2; 6480 nM at CYP2C9; 3360 nM at CYP2C19; 2210 nM at CYP2D6.

For the molecule `CC(=O)N1CCN(Cc2cncn2C(C)c2ccccc2-c2ccc(F)cc2)CC1` (stereo not drawn) [Compound 60, 1-(4-((1-(1-(4′-fluoro-[1,1′-biphenyl]-2-yl)ethyl)-1H-imidazol-5-yl)methyl)piperazin-1-yl)ethanone], the IC50 was 23 nM at CYP3A4; > 10000 nM at CYP1A2; > 10000 nM at CYP2C9; > 10000 nM on CYP2C19; 4500 nM at CYP2D6.

In the case of `C[C@H](c1ccc(F)cc1)n1cncc1CN1CCN(Cc2ccccc2)C(=O)C1` [Compound 61, (R)-1-benzyl-4-((1-(1-(4-fluorophenyl)ethyl)-1H-imidazol-5-yl)methyl)piperazin-2-one], the IC50 at CYP3A4 is 23 nM; on CYP1A2 it was > 10000 nM; on CYP2C9, > 10000 nM; on CYP2C19, 1620 nM; on CYP2D6, 2520 nM.

For the molecule `C[C@H](c1ccc(F)cc1)n1cncc1CN1CCN(Cc2ccccc2Cn2cncn2)C(=O)C1` [Compound 62, (R)-1-(2-((1H-1,2,4-triazol-1-yl)methyl)benzyl)-4-((1-(1-(4-fluorophenyl)ethyl)-1H-imidazol-5-yl)methyl) piperazin-2-one], the IC50 came to 43 nM on CYP3A4; 6940 nM on CYP1A2; 6210 nM on CYP2C9; 1140 nM on CYP2C19; 5640 nM on CYP2D6.

Consider `C[C@H](c1ccc(F)cc1)n1cncc1CN1CCN(Cc2cn3ccccc3n2)C(=O)C1` [Compound 63, (R)-4-((1-(1-(4-fluorophenyl)ethyl)-1H-imidazol-5-yl)methyl)-1-(imidazo[1,2-a]pyridin-2-ylmethyl)piperazin-2-one], for which the IC50 on CYP3A4 was 46 nM; at CYP1A2, ≥ 10000 nM; on CYP2C9 it was > 10000 nM; on CYP2C19, > 10000 nM; on CYP2D6, > 10000 nM.

Regarding `COc1ccc(-c2nc(CN3CCN(Cc4cncn4[C@H](C)c4ccc(F)cc4)CC3=O)no2)cc1` [Compound 64, (R)-4-((1-(1-(4-fluorophenyl)ethyl)-1H-imidazol-5-yl)methyl)-1-((5-(4-methoxyphenyl)-1,2,4-oxadiazol-3-yl)methyl) piperazin-2-one], the IC50 at CYP3A4 was determined as 43 nM; at CYP1A2, 3590 nM; on CYP2C9, 2860 nM; at CYP2C19, 4520 nM; on CYP2D6, 3110 nM.

As to `COc1ccc(CNc2ncc(CN3CCN(Cc4cncn4[C@H](C)c4ccc(F)cc4)CC3=O)s2)c(OC)c1` [Compound 65, (R)-1-((2-((2,4-dimethoxybenzyl)amino)thiazol-5-yl)methyl)-4-((1-(1-(4-fluorophenyl)ethyl)-1H-imidazol-5-yl)methyl)piperazin-2-one], the 50% inhibitory concentration (IC50) on CYP3A4 is 10 nM; at CYP1A2, > 10000 nM; at CYP2C9 it was 8780 nM; at CYP2C19, 1340 nM; at CYP2D6 it was 3360 nM.

Turning to `C[C@H](c1ccc(F)cc1)n1cncc1CN1CCN(Cc2cnc(N(C)C)s2)C(=O)C1` [Compound 66, (R)-1-((2-(dimethylamino)thiazol-5-yl)methyl)-4-((1-(1-(4-fluorophenyl)ethyl)-1H-imidazol-5-yl)methyl) piperazin-2-one], the IC50 at CYP3A4 is 43 nM; at CYP1A2, > 10000 nM; on CYP2C9, > 10000 nM; at CYP2C19 it was > 10000 nM; at CYP2D6 it was > 10000 nM.

Take `CNc1ncc(CN2CCN(Cc3cncn3[C@H](C)c3ccc(F)cc3)CC2=O)s1` [Compound 67, (R)-4-((1-(1-(4-fluorophenyl)ethyl)-1H-imidazol-5-yl)methyl)-1-((2-(methylamino)thiazol-5-yl)methyl) piperazin-2-one]: the IC50 at CYP3A4 was 75 nM; at CYP1A2 it was > 10000 nM; on CYP2C9, > 10000 nM; at CYP2C19, > 10000 nM; at CYP2D6 it was > 10000 nM.

Turning to `C[C@H](c1ccc(F)cc1)n1cncc1CN1CCN(Cc2cnc(N3CCOCC3)s2)C(=O)C1` [Compound 68, (R)-4-((1-(1-(4-fluorophenyl)ethyl)-1H-imidazol-5-yl)methyl)-1-((2-morpholinothiazol-5-yl)methyl)piperazin-2-one], the IC50 on CYP3A4 was 80 nM; at CYP1A2 it was > 10000 nM; on CYP2C9, > 10000 nM; on CYP2C19 it was > 10000 nM; at CYP2D6 it was > 10000 nM.
